In paper PMC12405493, “Selective ubiquitination of drug-like small molecules by the ubiquitin ligase HUWE1” (Nature Communications, 2025):

Legend:
[1] = biological target: T1, HUWE1^HECT (Homo sapiens, UniProt Q7Z6Z7); experiment: Analytical SEC / intact protein MS of HUWE1^HECT-driven compound ubiquitination; type: biochemical; details: for Compound ubiquitination by HUWE1^HECT (SEC, intact protein MS): + ATP, WT Ub; for Inhibitor ubiquitination activity of HUWE1^HECT compared with other HECT domains: SEC, monoubiquitinated compound, HUWE1^HECT signal normalized to 1
T1 construct: the isolated HECT domain of HUWE1 (HUWE1^HECT); made in house
T1 sequence (Q7Z6Z7 3993-4374): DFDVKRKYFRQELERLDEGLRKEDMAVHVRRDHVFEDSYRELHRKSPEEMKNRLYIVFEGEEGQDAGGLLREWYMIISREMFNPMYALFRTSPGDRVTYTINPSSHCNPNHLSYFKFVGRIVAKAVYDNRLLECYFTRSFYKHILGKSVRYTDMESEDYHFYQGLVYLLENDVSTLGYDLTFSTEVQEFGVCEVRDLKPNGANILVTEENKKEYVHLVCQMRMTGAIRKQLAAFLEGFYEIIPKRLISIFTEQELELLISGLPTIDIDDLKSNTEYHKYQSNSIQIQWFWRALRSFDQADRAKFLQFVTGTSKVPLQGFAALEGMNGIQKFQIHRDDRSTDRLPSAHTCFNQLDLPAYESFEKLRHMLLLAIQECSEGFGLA
Description: HUWE1^HECT multi-turnover ubiquitination reactions were performed with 500 nM UBA1, 5 μM UBE2L3, 5 μM HUWE1^HECT and 100 μM Ub in 20 mM HEPES (pH 7.5), 100 mM NaCl and 0.5 mM TCEP in the presence of 1 mM ATP and 3 mM MgCl2. After 15 min incubation at 30 °C, the mixture was injected into a Superdex 75 Increase 3.2/300 column (Cytiva), equilibrated in 25 mM HEPES (pH 7.5), 100 mM NaCl, and 0.5 mM TCEP at 4 °C. Chromatograms were analyzed and peaks integrated with Unicorn v.7.9.02440 (Cytiva). Data were plotted with Prism v.9.3.1 (GraphPad).
Intact protein LC/MS: protein molecular weights (MWs) were determined by LC/MS on a nanoflow chromatography system (Dionex U3000 nanoRSLC), hyphenated to a hybrid quadrupole/orbitrap mass spectrometer (Q Exactive HF) with a NanoFlex ion source and controlled by Xcalibur v.2.4 (all Thermo Fisher Scientific). Proteins were dissolved in 2% (v/v) acetonitrile (ACN), 0.1% (v/v) formic acid (FA) to a concentration of 100 fmol μL^−1. For each analysis, 500 fmol were enriched on a pre-column (0.15 ×20 mm, Reprosil-Pur120 C18-AQ 5 μm; Dr. Maisch GmbH) and separated on an analytical RP-C18 column (0.075 mm×200 mm, Reprosil-Pur 120 C18-AQ; 1.9 μm, Dr. Maisch GmbH), using a 23-min linear gradient of 10–80% (v/v) ACN/0.1% (v/v) FA at 300 nl min^−1. MS data were acquired in full MS mode across the 500–1800 m/z-range at a resolution setting of 120,000 FWHM, an AGC target of 1*10e6 and a maximum fill time of 200 ms. Charge state deconvolution and MW representation were performed in Freestyle v.1.9 (Thermo Fisher Scientific), using default settings for high-resolution data.

[2] = biological target: T2, vinylthioether-linked HUWE1^HECT-Ub complex (Homo sapiens, UniProt Q7Z6Z7); experiment: Differential scanning fluorimetry (DSF) with HUWE1^HECT~Ub proxy; type: binding; details: 10 μM protein
T2 construct: The preparation of the vinylthioether-linked HUWE1^HECT-Ub complex was also previously described; made in house; host or cells: bacteria (components)
Description: DSF was performed in 25 mM HEPES (pH 7.5), 100 mM NaCl, 1 mM TCEP and 0.4% (v/v) DMSO, using a CFX96 Touch Real-Time PCR Detection System (BioRad). 10 μM HUWE1^HECT and HUWE1^HECT-Ub, respectively, at a sample volume of 25 μL were denatured by a linear 25–95 °C gradient over 120 min in a presence of 10 x SYPRO Orange (Invitrogen). Tm-values were determined as the first derivative of the fluorescence curves, using CFX Maestro™ v.1.1 (Bio-Rad). Melting curves were plotted as normalized -d(fluorescence)/dt with Prism v.9.3.1 (GraphPad).

[3] = biological target: T3, HUWE1^FL (Homo sapiens, UniProt Q7Z6Z7); experiment: HUWE1^FL multi-turnover ubiquitination reactions without protein substrate (autoubiquitination, free Ub chains); type: biochemical; details: without protein substrate; varying concentrations
T3 construct: made in house; host or cells: HEK293T (transient transfection, anti-Flag purification, SEC)
Description: HUWE1^HECT multi-turnover ubiquitination reactions were performed for 30 minutes (unless stated otherwise) with 200 nM UBA1, 5 μM UBE2L3 or UBE2D3 (as specified), 1 μM HUWE1^HECT and 30 μM Ub in 25 mM HEPES (pH 7.5), 100 mM NaCl, 3 mM MgCl2, and 0.5 mM TCEP. HUWE1^FL multi-turnover ubiquitination reactions included 50 nM UBA1, 2.5 μM UBE2L3, 0.05 μM HUWE1^FL, 0.5 μM MCL1 (or 0.5 μM H2B or 1 μM FOXP3) and 20 μM Ub in 20 mM HEPES (pH 7.5), 100 mM NaCl, 3 mM MgCl2, and 0.5 mM TCEP. All multi-turnover reactions were started by the addition of 1 mM ATP, incubated at 30 °C, quenched with SDS-loading dye. If not stated otherwise, HUWE1^FLautoubiquitination reactions were incubated for 20 minutes. Substrate ubiquitination reactions with MCL1 or H2B were incubated for 10 and 20 min, respectively; those with FOXP3 for 30 min. Those reactions that were monitored by fluorescence contained a fluorescent Ub tracer (IRDye 800CW maleimide; LI-COR)[55] and were monitored using an Odyssey CLx scanner (LI-COR), followed by Coomassie staining. In the fluorescence images, only those marker bands are labeled (in kDa) that are visible by fluorescence; all marker bands are labeled in the Coomassie-stained images. Statistical analyses were performed with Prism 9 v.9.3.1 (GraphPad).

T3 sequence (Q7Z6Z7 whole entry): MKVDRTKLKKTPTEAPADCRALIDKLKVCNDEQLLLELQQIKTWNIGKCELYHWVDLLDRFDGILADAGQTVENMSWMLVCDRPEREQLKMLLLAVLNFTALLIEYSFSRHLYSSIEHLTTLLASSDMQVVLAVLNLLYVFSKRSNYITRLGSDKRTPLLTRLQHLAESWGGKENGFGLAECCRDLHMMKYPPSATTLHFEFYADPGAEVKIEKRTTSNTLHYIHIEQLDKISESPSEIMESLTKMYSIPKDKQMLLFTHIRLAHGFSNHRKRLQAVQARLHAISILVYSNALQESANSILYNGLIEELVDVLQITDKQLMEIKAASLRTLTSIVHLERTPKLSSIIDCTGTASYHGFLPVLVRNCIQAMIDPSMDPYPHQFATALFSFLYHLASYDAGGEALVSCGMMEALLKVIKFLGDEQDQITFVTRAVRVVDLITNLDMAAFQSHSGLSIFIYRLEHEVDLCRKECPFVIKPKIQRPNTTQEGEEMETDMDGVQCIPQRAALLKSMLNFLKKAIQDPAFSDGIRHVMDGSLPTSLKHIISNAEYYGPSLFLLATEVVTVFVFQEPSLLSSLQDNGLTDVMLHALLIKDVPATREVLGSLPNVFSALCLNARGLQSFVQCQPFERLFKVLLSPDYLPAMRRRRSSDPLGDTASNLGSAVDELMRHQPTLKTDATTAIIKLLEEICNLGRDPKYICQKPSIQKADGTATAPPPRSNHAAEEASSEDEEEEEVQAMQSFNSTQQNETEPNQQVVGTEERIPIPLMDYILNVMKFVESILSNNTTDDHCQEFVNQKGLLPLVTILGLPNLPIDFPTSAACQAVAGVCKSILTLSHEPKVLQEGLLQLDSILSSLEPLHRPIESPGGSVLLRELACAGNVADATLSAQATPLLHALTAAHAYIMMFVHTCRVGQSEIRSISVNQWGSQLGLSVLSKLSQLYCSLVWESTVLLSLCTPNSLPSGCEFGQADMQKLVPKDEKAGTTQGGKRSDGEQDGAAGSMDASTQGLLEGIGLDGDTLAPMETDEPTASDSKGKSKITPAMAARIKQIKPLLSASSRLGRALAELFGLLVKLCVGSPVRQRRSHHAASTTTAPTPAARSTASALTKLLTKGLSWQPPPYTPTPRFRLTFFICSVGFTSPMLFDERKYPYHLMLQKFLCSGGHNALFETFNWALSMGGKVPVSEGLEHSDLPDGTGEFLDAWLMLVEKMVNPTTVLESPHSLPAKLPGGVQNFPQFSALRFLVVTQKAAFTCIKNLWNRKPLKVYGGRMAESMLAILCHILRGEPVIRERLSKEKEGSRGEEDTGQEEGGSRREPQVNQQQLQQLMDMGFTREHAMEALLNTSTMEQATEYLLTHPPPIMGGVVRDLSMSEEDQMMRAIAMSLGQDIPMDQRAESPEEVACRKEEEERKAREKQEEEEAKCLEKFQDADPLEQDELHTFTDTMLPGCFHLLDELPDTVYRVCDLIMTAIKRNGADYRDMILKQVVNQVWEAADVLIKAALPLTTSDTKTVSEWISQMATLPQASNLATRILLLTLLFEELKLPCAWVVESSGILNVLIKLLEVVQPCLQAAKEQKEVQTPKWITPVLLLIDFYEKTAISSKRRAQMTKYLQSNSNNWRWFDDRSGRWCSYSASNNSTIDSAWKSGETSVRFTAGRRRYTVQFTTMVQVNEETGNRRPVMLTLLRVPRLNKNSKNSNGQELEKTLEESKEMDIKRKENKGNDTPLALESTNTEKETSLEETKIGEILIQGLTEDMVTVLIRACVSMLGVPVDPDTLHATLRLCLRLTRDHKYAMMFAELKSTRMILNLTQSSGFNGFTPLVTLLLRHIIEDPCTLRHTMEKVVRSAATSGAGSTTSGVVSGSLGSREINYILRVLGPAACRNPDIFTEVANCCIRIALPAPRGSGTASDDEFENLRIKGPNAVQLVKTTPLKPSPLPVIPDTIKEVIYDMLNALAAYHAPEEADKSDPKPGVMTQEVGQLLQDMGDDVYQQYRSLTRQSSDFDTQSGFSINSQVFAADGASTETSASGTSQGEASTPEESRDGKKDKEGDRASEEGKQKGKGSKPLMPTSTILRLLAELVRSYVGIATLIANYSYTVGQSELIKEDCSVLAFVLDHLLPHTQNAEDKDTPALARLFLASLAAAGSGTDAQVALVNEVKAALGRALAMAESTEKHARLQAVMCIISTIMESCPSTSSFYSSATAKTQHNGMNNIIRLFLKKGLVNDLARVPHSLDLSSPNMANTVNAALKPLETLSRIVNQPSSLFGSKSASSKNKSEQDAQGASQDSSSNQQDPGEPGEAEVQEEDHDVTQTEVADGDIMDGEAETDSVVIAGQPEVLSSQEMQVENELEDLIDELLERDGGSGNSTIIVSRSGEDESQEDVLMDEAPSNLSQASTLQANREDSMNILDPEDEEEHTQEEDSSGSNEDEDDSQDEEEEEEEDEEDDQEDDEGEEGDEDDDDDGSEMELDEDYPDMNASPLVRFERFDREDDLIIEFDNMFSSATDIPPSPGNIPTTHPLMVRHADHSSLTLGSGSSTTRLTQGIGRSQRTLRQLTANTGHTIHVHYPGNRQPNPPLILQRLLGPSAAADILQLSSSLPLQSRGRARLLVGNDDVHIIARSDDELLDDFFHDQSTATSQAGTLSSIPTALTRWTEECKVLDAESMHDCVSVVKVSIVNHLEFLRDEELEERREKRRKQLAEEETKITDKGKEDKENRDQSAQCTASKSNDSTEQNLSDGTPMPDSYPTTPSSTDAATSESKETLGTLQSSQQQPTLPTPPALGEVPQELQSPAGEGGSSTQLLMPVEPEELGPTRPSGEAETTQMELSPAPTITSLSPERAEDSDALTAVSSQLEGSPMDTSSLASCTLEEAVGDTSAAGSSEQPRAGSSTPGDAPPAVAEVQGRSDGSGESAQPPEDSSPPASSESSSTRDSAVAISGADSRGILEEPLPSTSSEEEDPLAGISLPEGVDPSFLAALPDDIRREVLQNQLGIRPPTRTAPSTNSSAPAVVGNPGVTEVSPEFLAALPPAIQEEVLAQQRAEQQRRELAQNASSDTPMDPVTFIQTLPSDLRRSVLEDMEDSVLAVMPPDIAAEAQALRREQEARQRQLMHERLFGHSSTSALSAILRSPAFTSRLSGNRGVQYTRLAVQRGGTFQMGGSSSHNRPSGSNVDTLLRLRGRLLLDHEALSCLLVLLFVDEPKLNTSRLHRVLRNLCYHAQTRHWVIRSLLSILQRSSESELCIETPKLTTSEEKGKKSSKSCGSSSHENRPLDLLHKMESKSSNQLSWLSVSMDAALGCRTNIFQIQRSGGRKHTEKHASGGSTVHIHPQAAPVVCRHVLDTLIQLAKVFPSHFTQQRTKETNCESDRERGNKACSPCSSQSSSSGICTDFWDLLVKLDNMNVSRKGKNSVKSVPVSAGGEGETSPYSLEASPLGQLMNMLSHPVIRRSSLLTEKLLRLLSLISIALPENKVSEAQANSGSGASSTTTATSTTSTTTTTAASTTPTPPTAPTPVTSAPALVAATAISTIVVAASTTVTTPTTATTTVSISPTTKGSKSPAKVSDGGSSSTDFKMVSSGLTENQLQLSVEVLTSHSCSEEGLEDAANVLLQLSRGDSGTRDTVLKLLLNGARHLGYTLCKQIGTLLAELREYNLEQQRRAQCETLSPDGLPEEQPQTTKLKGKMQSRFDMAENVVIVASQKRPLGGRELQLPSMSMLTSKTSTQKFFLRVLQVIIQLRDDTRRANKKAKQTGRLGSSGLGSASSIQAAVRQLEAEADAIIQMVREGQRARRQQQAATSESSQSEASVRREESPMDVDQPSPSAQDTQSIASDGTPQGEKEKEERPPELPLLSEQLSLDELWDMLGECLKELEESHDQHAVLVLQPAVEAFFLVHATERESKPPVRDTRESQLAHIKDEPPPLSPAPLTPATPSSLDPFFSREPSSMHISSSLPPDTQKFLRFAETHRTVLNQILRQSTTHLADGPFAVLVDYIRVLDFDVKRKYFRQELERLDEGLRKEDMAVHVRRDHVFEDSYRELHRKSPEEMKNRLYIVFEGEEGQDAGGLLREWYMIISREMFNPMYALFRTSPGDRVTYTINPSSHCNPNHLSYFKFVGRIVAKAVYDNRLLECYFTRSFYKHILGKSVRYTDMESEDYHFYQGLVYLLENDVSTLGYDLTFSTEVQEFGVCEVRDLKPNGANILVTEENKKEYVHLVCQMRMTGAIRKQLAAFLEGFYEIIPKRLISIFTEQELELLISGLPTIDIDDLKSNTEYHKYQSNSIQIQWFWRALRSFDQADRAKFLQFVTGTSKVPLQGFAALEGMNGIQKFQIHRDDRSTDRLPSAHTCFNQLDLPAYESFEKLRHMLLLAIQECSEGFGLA

Cc1c(C(=O)Nc2ccc(CN)cc2)ncnc1N1CCC(C#N)(c2ccccc2)CC1 [BI8622]
Compound ubiquitination by HUWE1^HECT (SEC, intact protein MS) ([1]; 20 μM compound): assigned to the respective monoubiquitinated compound by intact protein MS | Inhibitor ubiquitination activity of HUWE1^HECT compared with other HECT domains [1]: substantially higher activity for HUWE1^HECT than for the other HECT domains | Interaction with HUWE1^HECT-Ub by DSF [2]: no interactions between HUWE1^HECT-Ub and the inhibitors could be detected | Inhibition of HUWE1^FL protein ubiquitination activity (E3 autoubiquitination, free Ub chain formation) [3]: inhibit the protein ubiquitination activity of the ligase in a dose-dependent manner

NCc1cccc(CNc2ncnc3c(N4CCN(Cc5ccccc5)CC4)ncnc23)c1 [BI8626]
Compound ubiquitination by HUWE1^HECT (SEC, intact protein MS) ([1]; 20 μM compound): assigned to the respective monoubiquitinated compound by intact protein MS | Compound ubiquitination by HUWE1^HECT (SEC) ([1]; 20 μM compound, UbΔGG (residues 1–74) instead of WT Ub): No compound ubiquitination occurred | Inhibitor ubiquitination activity of HUWE1^HECT compared with other HECT domains [1]: substantially higher activity for HUWE1^HECT than for the other HECT domains | Interaction with HUWE1^HECT-Ub by DSF [2]: no interactions between HUWE1^HECT-Ub and the inhibitors could be detected | Inhibition of HUWE1^FL protein ubiquitination activity (E3 autoubiquitination, free Ub chain formation) [3]: inhibit the protein ubiquitination activity of the ligase in a dose-dependent manner
